Reference: patent US9556201B2, “Bicyclic pyridines and analogs as sirtuin modulators” (GLAXOSMITHKLINE LLC, priority 2009, dated 2017)

Molecular target: T1, SIRT1 (Homo sapiens, UniProt Q96EB6)
T1 sequence (Q96EB6 1-747): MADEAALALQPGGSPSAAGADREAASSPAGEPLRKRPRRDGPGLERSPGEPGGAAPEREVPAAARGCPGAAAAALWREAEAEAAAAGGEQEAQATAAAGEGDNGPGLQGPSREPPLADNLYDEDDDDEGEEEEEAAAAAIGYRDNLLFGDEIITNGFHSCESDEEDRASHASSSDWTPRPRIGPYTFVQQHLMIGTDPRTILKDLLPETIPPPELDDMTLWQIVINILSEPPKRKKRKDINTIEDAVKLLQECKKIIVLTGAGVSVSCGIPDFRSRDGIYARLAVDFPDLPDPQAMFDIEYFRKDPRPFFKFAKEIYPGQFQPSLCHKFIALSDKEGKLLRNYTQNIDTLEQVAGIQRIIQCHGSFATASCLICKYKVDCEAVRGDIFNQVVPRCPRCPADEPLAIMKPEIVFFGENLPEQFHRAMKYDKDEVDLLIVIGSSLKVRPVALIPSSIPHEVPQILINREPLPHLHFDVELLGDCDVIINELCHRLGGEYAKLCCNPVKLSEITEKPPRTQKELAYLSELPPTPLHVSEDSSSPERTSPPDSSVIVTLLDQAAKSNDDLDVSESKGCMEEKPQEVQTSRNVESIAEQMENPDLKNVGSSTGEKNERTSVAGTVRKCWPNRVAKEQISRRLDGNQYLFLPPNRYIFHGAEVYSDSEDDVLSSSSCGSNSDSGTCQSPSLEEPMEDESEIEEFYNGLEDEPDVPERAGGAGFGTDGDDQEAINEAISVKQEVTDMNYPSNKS
Assay: Mass spectrometry based assay to identify modulators of SIRT1 activity (deacetylation of p53-based acetylated peptide substrate)
Format: biochemical
Conditions: for Emax: 25 min, SIRT1 activation, read-out: % FOLD ACT. (percent maximum fold activation)
Method in brief: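 Deacetylation of a modified p53 acetyl-lysine peptide ([…], 5TMR-labelled, Nle for Met) by 10 nM N-His SIRT1 with 120 μM βNAD+, pH 8, 25 min, 25 °C. Substrate and product masses measured by MS after formic acid quench; nicotinamide defines maximal inhibition.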

Row | SMILES | EC1.5 (concentration giving 1.5-fold activation) | Emax | % FOLD ACT. (percent maximum fold activation)
1 | O=C(Nc1ccncc1F)N1CCOc2ncc(-c3cccc(C(F)(F)F)c3)nc21 [Compound 724] | 1 to 25 µM | > 200% | 
2 | Cc1cncc(NC(=O)N2CCOc3ncc(-c4cccc(C(F)(F)F)c4)nc32)c1 [Compound 725] | 1 to 25 µM | > 200% | 
3 | Cc1cc(NC(=O)N2CCOc3ncc(-c4cccc(C(F)(F)F)c4)nc32)cc(C)n1 [Compound 726] | < 1 µM | > 200% | 
4 | Cc1cc(NC(=O)N2CCOc3c(N(C)C)nc(-c4cccc(F)c4)nc32)cc(C)n1 [Compound 727] | < 1 µM | ≤ 200% | 
5 | O=C(Nc1ccncc1)N1CCCCc2ccc(-c3cccc(Cl)c3)nc21 [Compound 728, 2-(3-chlorophenyl)-N-(pyridin-4-yl)-7,8-dihydro-5H-pyrido[2,3-b]azepine-9(6H)-carboxamide] | 1 to 25 µM | > 200% | 
6 | O=C1CCN(C(=O)Nc2ccccn2)c2nc(-c3cccc(C(F)(F)F)c3)ccc21 [Compound 729] | 1 to 25 µM | > 200% | 
7 | O=C1CCN(C(=O)Nc2ccc(F)cn2)c2nc(-c3cccc(C(F)(F)F)c3)ccc21 [Compound 730] | 1 to 25 µM | ≤ 200% | 
8 | O=C(Nc1ccnc(OC[C@H](O)CO)n1)N1CCOc2ccc(-c3cccc(C(F)(F)F)c3)nc21 [Compound 731] | > 25 µM | ≤ 200% | 
9 | O=C(Nc1ccnc(OC[C@@H](O)CO)n1)N1CCOc2ccc(-c3cccc(C(F)(F)F)c3)nc21 [Compound 732] | > 25 µM | ≤ 200% | 
10 | Cc1cccc(NC(=O)N2CCCCc3ccc(-c4cccc(Cl)c4)nc32)n1 [Compound 733] | > 25 µM | ≤ 200% | 
11 | O=C(Nc1ccncc1F)N1CCCCc2ccc(-c3cccc(Cl)c3)nc21 [Compound 734] | 1 to 25 µM | > 200% | 
12 | O=C(Nc1ccc(F)cn1)N1CCCCc2ccc(-c3cccc(Cl)c3)nc21 [Compound 735] | > 25 µM | ≤ 200% | 
13 | CN(C)c1nc(-c2cccc(F)c2)nc2c1OCCN2C(=O)Nc1ccncc1 [Compound 736, 4-(dimethylamino)-2-(3-fluorophenyl)-N-(pyridin-4-yl)-6H-pyrimido[5,4-b][1,4]oxazine-8(7H)-carboxamide] | > 25 µM | ≤ 200% | 
14 | O=C(Nc1ccncc1)N1CCOc2c(N3CCCC3)nc(-c3cccc(F)c3)nc21 [Compound 737] | > 25 µM | ≤ 200% | 
15 | O=C(Nc1ccncc1)N1CCOc2c(N3CCNCC3)nc(-c3cccc(F)c3)nc21 [Compound 738, 2-(3-fluorophenyl)-4-(piperazin-1-yl)-N-(pyridin-4-yl)-6H-pyrimido[5,4-b][1,4]oxazine-8(7H)-carboxamide] | > 25 µM | ≤ 200% | 
16 | Cc1cc(NC(=O)N2CCOc3c(N4CCOCC4)nc(-c4cccc(F)c4)nc32)cc(C)n1 [Compound 739] | 1 to 25 µM | ≤ 200% | 
17 | Cc1csc(NC(=O)N2CCOc3ncc(-c4cccc(C(F)(F)F)c4)nc32)n1 [Compound 740, N-(4-methylthiazol-2-yl)-6-(3-(trifluoromethyl)phenyl)-2H-pyrazino[2,3-b][1,4]oxazine-4(3H)-carboxamide] | > 25 µM | ≤ 200% | 
18 | Cc1cc(C)nc(NC(=O)N2CCOc3ncc(-c4cccc(C(F)(F)F)c4)nc32)c1 [Compound 741] | 1 to 25 µM | > 200% | 
19 | O=C(Nc1cccc(OCC(O)CO)n1)N1CCOc2ncc(-c3cccc(C(F)(F)F)c3)nc21 (centres unmarked) [Compound 742] | < 1 µM | > 200% | 
20 | O=C(Nc1ccncc1)N1CCC(F)(F)c2ccc(-c3cccc(C(F)(F)F)c3)nc21 [Compound 743, 4,4-difluoro-N-(pyridin-4-yl)-7-(3-(trifluoromethyl)phenyl)-3,4-dihydro-1,8-naphthyridine-1(2H)-carboxamide] | 1 to 25 µM | > 200% | 
21 | Cc1cnccc1NC(=O)N1CCC(F)(F)c2ccc(-c3cccc(C(F)(F)F)c3)nc21 [Compound 744] | > 25 µM | ≤ 200% | 
22 | O=C(Nc1ccncc1F)N1CCC(F)(F)c2ccc(-c3cccc(C(F)(F)F)c3)nc21 [Compound 746] | 1 to 25 µM | ≤ 200% | 
23 | O=C1CCCN(C(=O)Nc2cccnc2)c2nc(-c3cccc(Cl)c3)ccc21 [Compound 747, 2-(3-chlorophenyl)-5-oxo-N-(pyridin-3-yl)-7,8-dihydro-5H-pyrido[2,3-b]azepine-9(6H)-carboxamide] | 1 to 25 µM | > 200% | 

Row | SMILES | EC1.5 (concentration giving 1.5-fold activation) | Emax | % FOLD ACT. (percent maximum fold activation)
24 | O=C(Nc1ccnc(N2CCC2)c1)N1CCOc2ncc(-c3cccc(C(F)(F)F)c3)nc21 [Compound 748] | < 1 µM | > 200% | 
25 | O=C(Nc1ccncc1)N1CCOc2c(N3CCNCC3)nc(-c3cccc(F)c3)nc21 [Compound 751] | 1 to 25 µM |  | B (Fold Activation≦200%)
26 | Cc1cc(NC(=O)N2CCOc3c(N4CCNCC4)nc(-c4cccc(F)c4)nc32)cc(C)n1 [Compound 752] | 1 to 25 µM | > 200% | 
27 | O=C(Nc1cncnc1)N1CCC(F)(F)c2ccc(-c3cccc(C(F)(F)F)c3)nc21 [Compound 753] | 1 to 25 µM | > 200% | 
28 | O=C(Nc1ccccn1)N1CCCCc2ccc(-c3cccc(Cl)c3)nc21 [Compound 754] | 1 to 25 µM | ≤ 200% | 
29 | O=C(Nc1ccncn1)N1CCCCc2ccc(-c3cccc(Cl)c3)nc21 [Compound 755] | 1 to 25 µM | > 200% | 
30 | O=C1CCCN(C(=O)Nc2ccncc2)c2nc(-c3cccc(Cl)c3)ccc21 [Compound 756] | 1 to 25 µM | > 200% | 
31 | CN(C)c1nc(-c2cccc(F)c2)nc2c1OCCN2C(=O)Nc1ccncn1 [Compound 757] | > 25 µM | ≤ 200% | 
32 | O=C(Nc1ccncn1)N1CCOc2c(N3CCOCC3)nc(-c3cccc(F)c3)nc21 [Compound 758] | > 25 µM | ≤ 200% | 
33 | O=C(Nc1ccncn1)N1CCOc2c(N3CCNCC3)nc(-c3cccc(F)c3)nc21 [Compound 759] | 1 to 25 µM | > 200% | 
34 | CC1(C)CN(C(=O)Nc2ccccn2)c2nc(-c3cccc(F)c3)ccc2O1 [Compound 760] | 1 to 25 µM | > 200% | 
35 | O=C(Nc1ccccn1)N1CCCOc2ccc(-c3cccc(Cl)c3)nc21 [Compound 761] | 1 to 25 µM | > 200% | 
36 | O=C(Nc1ccc(F)cn1)N1CCCOc2ccc(-c3cccc(Cl)c3)nc21 [Compound 762] | 1 to 25 µM | ≤ 200% | 
37 | Cc1ccnc(NC(=O)N2CCCOc3ccc(-c4cccc(Cl)c4)nc32)c1 [Compound 763] | 1 to 25 µM | > 200% | 
38 | CCN1C(=O)CCN(C(=O)Nc2ccccn2)c2nc(-c3cccc(Cl)c3)ccc21 [Compound 765, 7-(3-chlorophenyl)-1-ethyl-2-oxo-N-(pyridin-2-yl)-3,4-dihydro-1H-pyrido[2,3-b][1,4]diazepine-5(2H)-carboxamide] | > 25 µM | ≤ 200% | 
39 | O=C1CCCN(C(=O)Nc2ccncc2F)c2nc(-c3cccc(Cl)c3)ccc21 [Compound 767] | 1 to 25 µM | ≤ 200% | 
40 | O=C1CCCN(C(=O)Nc2ccccn2)c2nc(-c3cccc(Cl)c3)ccc21 [Compound 768] | < 1 µM | > 200% | 
41 | O=C(Nc1ccncc1F)N1CCCOc2ccc(-c3cccc(Cl)c3)nc21 [Compound 769] | 1 to 25 µM | > 200% | 
42 | O=C(Nc1ccncc1)N1CCCC(F)(F)c2ccc(-c3cccc(Cl)c3)nc21 [Compound 770] | > 25 µM | ≤ 200% | 
43 | O=C(Nc1cccnc1)N1CCCC(F)(F)c2ccc(-c3cccc(Cl)c3)nc21 [Compound 771] | > 25 µM | ≤ 200% | 
44 | Cc1cc(NC(=O)N2CCCC(F)(F)c3ccc(-c4cccc(Cl)c4)nc32)cc(C)n1 [Compound 772] | 1 to 25 µM | > 200% | 
45 | Cc1cc(NC(=O)N2CCCC(F)(F)c3ccc(-c4cccc(Cl)c4)nc32)ccn1 [Compound 773] | 1 to 25 µM | > 200% | 
46 | CCN1C(=O)CCN(C(=O)Nc2ccncc2F)c2nc(-c3cccc(Cl)c3)ccc21 [Compound 774] | > 25 µM | ≤ 200% | 
